Format in all cases: cell-based
One assay has as its system A431 cells. Nature of the assay: Cellular proliferation (Alamar Blue) assay, A431 cells. Particulars: Homo sapiens, A-431, 72 h, A431 cells; 72 hr; Alamar Blue; read-out: A431 IC50. Here is the method:
(§1) • 1. Seed cells at 5000 for A431 and 15,000 cells for Ba/F3 in 100 μL/well in complete media (for A431: DMEM with 10% FBS and for Ba/F3 cells: RPMI with 10% FBS) in 96-well tissue culture plate. Leave outer wells without cells for background measurements. Incubate at 37 degree Celsius in 5% CO2 humidified incubator for 16-18 hours. • 2. Add 0.025 ml of 5X concentration compound dilution or DMSO control. Final compound concentration range is 10-0.0005 μM prepared in 3-fold serial dilutions. Incubate for 72 hr at 37 degree Celsius in 5% CO2 humidified incubator. • 3. Add 0.0125 ml Alamar Blue™ reagent to each well with multi-channel pipette and tap gently on each side of the plate to mix. Incubate for 3 hours at 37 degree Celsius in 5% CO2 humidified incubator. • 4. […] Data analysis was performed using XLfit 5.5.0.5.
In general terms: The colour change of resazurin is a common sign of viable cells or microbes.

Assay [1] concerns the target HER2 (A775_G776insYVMA) expressing Ba/F3 stable cell line (Homo sapiens, UniProt P04626, DUP772-775, cells depend on it). Nature of the assay: Cellular proliferation (Alamar Blue) assay, HER2 (A775_G776insYVMA) Ba/F3. The settings on record: HER2 (A775_G776insYVMA) Ba/F3 cells; 72 hr; Alamar Blue; read-out: YVMA IC50. Here is the method:
(§2) Cell line details: • 1. EGFR(D770_N771insSVD) expressing Ba/F3 stable cell line • 2. EGFR (A767_dupASV) expressing Ba/F3 stable cell line • 3. A431 cells • 4. EGFR (H773insNPH) expressing Ba/F3 stable cell line • 5. HER2 (A775_G776insYVMA) expressing Ba/F3 stable cell line
as §1

Assay [2] deals with EGFR(D770_N771insSVD) expressing Ba/F3 stable cell line (Homo sapiens, UniProt P00533, DUP768-770, cells depend on it). Nature of the assay: Cellular proliferation (Alamar Blue) assay, EGFR(D770_N771insSVD) Ba/F3. The settings on record: 72 hr, read-out: D770 IC50. Here is the method:
as §2, §1

Assay [3] concerns the target EGFR (A767_dupASV) expressing Ba/F3 stable cell line (Homo sapiens, UniProt P00533, DUP767-769, cells depend on it). Nature of the assay: Cellular proliferation (Alamar Blue) assay, EGFR (A767_dupASV) Ba/F3. The settings on record: 72 hr, read-out: A767 IC50. The method, then:
as §2, §1

We go through 17 molecules from patent US20230416232A1, “PYRIMIDINE COMPOUNDS, COMPOSITIONS, AND MEDICINAL APPLICATIONS THEREOF” (Blueprint Medicines Corporation, priority 2020, published 2023).

EGFR (A767_dupASV) expressing Ba/F3 stable cell line, sequence (P00533 with tags, fused parts or gaps DUP767-769): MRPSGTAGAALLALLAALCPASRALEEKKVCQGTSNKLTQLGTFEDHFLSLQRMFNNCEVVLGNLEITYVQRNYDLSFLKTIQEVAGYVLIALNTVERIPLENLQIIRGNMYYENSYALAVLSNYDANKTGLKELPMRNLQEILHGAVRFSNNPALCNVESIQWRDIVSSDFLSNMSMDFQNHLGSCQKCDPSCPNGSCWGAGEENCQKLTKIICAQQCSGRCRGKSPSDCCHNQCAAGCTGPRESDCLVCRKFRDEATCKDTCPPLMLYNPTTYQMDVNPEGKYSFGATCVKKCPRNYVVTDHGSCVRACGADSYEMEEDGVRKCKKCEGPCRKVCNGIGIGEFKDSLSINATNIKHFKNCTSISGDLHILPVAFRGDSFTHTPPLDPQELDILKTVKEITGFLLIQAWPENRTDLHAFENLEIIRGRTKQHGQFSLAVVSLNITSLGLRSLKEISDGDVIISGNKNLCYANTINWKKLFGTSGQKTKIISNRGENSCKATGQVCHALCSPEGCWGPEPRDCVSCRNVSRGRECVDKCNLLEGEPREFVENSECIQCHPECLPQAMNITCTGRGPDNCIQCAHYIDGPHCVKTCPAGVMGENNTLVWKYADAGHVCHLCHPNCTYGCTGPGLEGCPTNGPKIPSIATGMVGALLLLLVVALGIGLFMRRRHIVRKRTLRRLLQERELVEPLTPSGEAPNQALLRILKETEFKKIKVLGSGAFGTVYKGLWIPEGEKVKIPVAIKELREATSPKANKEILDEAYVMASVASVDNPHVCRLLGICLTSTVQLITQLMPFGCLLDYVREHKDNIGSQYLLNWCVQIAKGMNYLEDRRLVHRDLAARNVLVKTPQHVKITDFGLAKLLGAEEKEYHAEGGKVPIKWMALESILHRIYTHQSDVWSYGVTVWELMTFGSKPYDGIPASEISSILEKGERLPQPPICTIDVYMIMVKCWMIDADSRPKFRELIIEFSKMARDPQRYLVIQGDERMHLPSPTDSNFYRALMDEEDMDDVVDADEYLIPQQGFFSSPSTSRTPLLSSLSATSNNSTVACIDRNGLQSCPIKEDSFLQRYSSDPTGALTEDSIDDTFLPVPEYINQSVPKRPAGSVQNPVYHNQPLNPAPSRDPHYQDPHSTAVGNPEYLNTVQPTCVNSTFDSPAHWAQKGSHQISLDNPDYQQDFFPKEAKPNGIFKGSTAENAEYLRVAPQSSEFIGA
HER2 (A775_G776insYVMA) expressing Ba/F3 stable cell line, sequence (P04626 with tags, fused parts or gaps DUP772-775): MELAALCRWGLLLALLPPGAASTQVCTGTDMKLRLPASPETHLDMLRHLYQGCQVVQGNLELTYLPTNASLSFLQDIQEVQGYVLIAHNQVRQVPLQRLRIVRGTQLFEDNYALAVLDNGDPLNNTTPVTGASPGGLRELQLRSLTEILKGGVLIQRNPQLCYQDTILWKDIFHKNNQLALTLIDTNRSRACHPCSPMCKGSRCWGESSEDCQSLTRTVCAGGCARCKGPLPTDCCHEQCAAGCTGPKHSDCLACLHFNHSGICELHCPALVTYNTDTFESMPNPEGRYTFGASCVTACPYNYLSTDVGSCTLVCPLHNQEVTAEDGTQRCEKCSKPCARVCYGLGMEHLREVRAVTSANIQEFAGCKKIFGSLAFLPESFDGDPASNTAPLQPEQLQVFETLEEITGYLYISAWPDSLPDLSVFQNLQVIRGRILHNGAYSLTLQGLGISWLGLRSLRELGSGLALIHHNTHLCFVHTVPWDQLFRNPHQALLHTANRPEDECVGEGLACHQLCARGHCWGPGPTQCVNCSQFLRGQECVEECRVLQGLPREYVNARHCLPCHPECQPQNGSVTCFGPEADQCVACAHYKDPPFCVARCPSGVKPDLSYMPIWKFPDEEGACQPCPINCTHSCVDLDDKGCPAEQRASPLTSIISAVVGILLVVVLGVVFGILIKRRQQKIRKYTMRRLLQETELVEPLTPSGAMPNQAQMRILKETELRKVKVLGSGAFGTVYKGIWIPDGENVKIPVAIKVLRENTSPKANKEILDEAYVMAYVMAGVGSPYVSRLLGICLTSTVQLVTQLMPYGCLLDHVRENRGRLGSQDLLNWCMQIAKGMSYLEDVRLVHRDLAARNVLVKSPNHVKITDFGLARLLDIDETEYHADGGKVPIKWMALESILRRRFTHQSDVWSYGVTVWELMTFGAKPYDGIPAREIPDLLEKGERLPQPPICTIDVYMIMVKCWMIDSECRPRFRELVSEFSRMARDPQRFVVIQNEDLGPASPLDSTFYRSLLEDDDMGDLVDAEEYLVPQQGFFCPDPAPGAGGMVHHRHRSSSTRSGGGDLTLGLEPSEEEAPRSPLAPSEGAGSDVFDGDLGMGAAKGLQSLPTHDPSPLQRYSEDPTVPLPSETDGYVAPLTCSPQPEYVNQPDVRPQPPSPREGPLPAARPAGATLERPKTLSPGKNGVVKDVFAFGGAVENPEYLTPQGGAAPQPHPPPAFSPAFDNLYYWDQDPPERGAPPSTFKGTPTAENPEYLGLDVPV
EGFR(D770_N771insSVD) expressing Ba/F3 stable cell line, sequence (P00533 with tags, fused parts or gaps DUP768-770): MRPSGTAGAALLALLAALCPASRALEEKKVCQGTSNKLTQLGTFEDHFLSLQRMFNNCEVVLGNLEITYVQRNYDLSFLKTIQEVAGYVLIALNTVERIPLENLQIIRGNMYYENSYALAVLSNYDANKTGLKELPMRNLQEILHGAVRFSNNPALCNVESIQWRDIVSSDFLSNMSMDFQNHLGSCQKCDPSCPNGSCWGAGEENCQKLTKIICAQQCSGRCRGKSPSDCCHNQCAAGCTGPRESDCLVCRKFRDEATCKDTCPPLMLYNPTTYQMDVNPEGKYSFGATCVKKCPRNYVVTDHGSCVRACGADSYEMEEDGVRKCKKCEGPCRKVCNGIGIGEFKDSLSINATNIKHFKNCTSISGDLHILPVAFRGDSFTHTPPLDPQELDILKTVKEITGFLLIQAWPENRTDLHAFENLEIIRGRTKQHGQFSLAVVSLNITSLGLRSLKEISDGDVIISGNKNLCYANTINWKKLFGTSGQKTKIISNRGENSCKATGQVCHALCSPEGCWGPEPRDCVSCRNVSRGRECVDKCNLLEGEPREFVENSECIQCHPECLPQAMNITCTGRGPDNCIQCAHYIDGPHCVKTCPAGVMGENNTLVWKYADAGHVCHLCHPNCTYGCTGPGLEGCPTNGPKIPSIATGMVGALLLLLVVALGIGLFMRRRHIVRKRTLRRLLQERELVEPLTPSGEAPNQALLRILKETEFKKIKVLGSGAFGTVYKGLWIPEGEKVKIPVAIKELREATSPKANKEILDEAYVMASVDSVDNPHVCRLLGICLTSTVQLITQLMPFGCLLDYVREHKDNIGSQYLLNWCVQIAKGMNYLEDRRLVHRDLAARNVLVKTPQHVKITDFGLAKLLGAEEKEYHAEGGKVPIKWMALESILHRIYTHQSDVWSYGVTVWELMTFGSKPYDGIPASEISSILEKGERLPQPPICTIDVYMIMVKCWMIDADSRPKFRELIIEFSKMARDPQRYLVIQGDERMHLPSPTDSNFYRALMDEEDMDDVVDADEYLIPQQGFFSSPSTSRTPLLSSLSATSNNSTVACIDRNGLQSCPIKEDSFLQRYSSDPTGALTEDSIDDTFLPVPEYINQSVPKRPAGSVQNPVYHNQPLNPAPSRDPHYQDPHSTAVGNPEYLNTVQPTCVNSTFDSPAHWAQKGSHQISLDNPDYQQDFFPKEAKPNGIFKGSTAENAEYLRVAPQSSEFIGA

One may read the IC50 as the concentration at which inhibition is half-maximal. Consider `C=CC(=O)Nc1ccc(F)c(Nc2nc(Nc3cnn(C)c3)ncc2-c2cc(F)cc(OC(F)(F)F)c2)c1` [Compound 172, N-(4-fluoro-3-((5-(3-fluoro-5-(trifluoromethoxy)phenyl)-2-((1-methyl-1H-pyrazol-4-yl)amino)pyrimidin-4-yl)amino)phenyl)acrylamide], for which, in the assay with A431 cells, the IC50 came out at 585 nM. Further, the GI50 in assay [1] was determined as 5980 nM; in assay [2], 843 nM; in assay [3], 967 nM.

On to `C=CC(=O)Nc1ccc(F)c(Nc2nc(Nc3cnn(C)c3)ncc2-c2ccc(OC)c(OC)c2)c1` [Compound 2, N-(3-((5-(3,4-dimethoxyphenyl)-2-((1-methyl-1H-pyrazol-4-yl)amino)pyrimidin-4-yl)amino)-4-fluorophenyl)acrylamide], for which the IC50 in the assay on A431 cells was above 10000 nM. In addition, the GI50 turned out to be 1050 nM in assay [2] and 896 nM in assay [3].

Take `C=CC(=O)Nc1ccc(F)c(Nc2nc(Nc3cnn(C)c3)ncc2-c2cc(Cl)ccc2OC)c1` [Compound 23, N-(3-((5-(5-chloro-2-methoxyphenyl)-2-((1-methyl-1H-pyrazol-4-yl)amino)pyrimidin-4-yl)amino)-4-fluorophenyl)acrylamide]: in the assay with A431 cells, the IC50 came to 2890 nM. Moreover, the GI50 in assay [2] came out at 2730 nM; in assay [3] it was 2760 nM.

In the case of `C=CC(=O)Nc1ccc(F)c(Nc2nc(Nc3cnn(C)c3)ncc2-c2ccc3c(c2)CCN3C)c1` [Compound 59, N-(4-fluoro-3-((2-((1-methyl-1H-pyrazol-4-yl)amino)-5-(1-methylindolin-5-yl)pyrimidin-4-yl)amino)phenyl)acrylamide], the IC50 in the assay on A431 cells is 575 nM. In addition, the GI50 in assay [2] was 300 nM; in assay [3] it was 957 nM.

Take `C=CC(=O)Nc1ccc(F)c(Nc2nc(Nc3cnn(C)c3)ncc2-c2ccc(N3CCN(C)CC3)c(F)c2)c1` [Compound 81, N-(4-fluoro-3-((5-(3-fluoro-4-(4-methylpiperazin-1-yl)phenyl)-2-((1-methyl-1H-pyrazol-4-yl)amino)pyrimidin-4-yl)amino)phenyl)acrylamide]: the IC50 in the assay on A431 cells is 3010 nM. For the same molecule, the GI50 was found to be 906 nM in assay [2] and 343 nM in assay [3].

On to `C=CC(=O)Nc1ccc(F)c(Nc2nc(Nc3cnn(C)c3)ncc2-c2cc(F)cc(OCC(F)(F)F)c2)c1` [Compound 176, N-(4-fluoro-3-((5-(3-fluoro-5-(2,2,2-trifluoroethoxy)phenyl)-2-((1-methyl-1H-pyrazol-4-yl)amino)pyrimidin-4-yl)amino)phenyl)acrylamide], for which the values for the GI50 in assay [1], in assay [2] and in assay [3] were above 10000 nM, 1130 nM and 859 nM, respectively.

For the molecule `C=CC(=O)Nc1ccc(F)c(Nc2nc(Nc3cnn(C)c3)ncc2-c2cc(F)cc(N(C)C)c2)c1` [Compound 42, N-(3-((5-(3-(dimethylamino)-5-fluorophenyl)-2-((1-methyl-1H-pyrazol-4-yl)amino)pyrimidin-4-yl)amino)-4-fluorophenyl)acrylamide], in the assay on A431 cells, the IC50 was 4510 nM. Besides, the GI50 was 942 nM in assay [2] and 737 nM in assay [3].

`C=CC(=O)Nc1ccc(F)c(Nc2nc(Nc3cnn(C)c3)ncc2-c2ccc(F)cc2Cl)c1` [Compound 12, N-(3-((5-(2-chloro-4-fluorophenyl)-2-((1-methyl-1H-pyrazol-4-yl)amino)pyrimidin-4-yl)amino)-4-fluorophenyl)acrylamide]: the GI50 in assay [2] was 363 nM; in assay [3], 919 nM.

Turning to `[2H]C([2H])=CC(=O)Nc1ccc(F)c(Nc2nc(Nc3cnn(C)c3)ncc2-c2cnc(F)c(F)c2)c1` [Compound 103, N-(3-((5-(5,6-difluoropyridin-3-yl)-2-((1-methyl-1H-pyrazol-4-yl)amino)pyrimidin-4-yl)amino)-4-fluorophenyl)acrylamide-3,3-d2], the concentration for half-maximal inhibition (IC50) with A431 cells was 20 nM. Besides, the GI50 is 25 nM in assay [2] and 14 nM in assay [3].

As for `CN(C)C/C=C/C(=O)Nc1ccc(F)c(Nc2nc(Nc3cnn(C)c3)ncc2-c2ccc3c(c2)OCC3)c1` [Compound 178, (E)-N-(3-((5-(2,3-dihydrobenzofuran-6-yl)-2-((1-methyl-1H-pyrazol-4-yl)amino)pyrimidin-4-yl)amino)-4-fluorophenyl)-4-(dimethylamino)but-2-enamide], in the assay with A431 cells, the IC50 was 350 nM. Further, the GI50 in assay [2] was determined as 927 nM; in assay [3] it was 722 nM.

In the case of `[2H]C([2H])([2H])n1cc(Nc2ncc(-c3ccc(Br)c(F)c3)c(Nc3cc(NC(=O)C=C)ccc3F)n2)cn1` [Compound 169, N-(3-((5-(4-bromo-3-fluorophenyl)-2-((1-(methyl-d3)-1H-pyrazol-4-yl)amino)pyrimidin-4-yl)amino)-4-fluorophenyl)acrylamide], in the assay on A431 cells, the IC50 came to 11 nM. The GI50 in assay [1] worked out at 147 nM; in assay [2] it was 36 nM.

On to `C=C(F)C(=O)Nc1ccc(F)c(Nc2nc(Nc3cnn(C)c3)ncc2-c2ccc(Br)c(F)c2)c1` [Compound 177, N-(3-((5-(4-bromo-3-fluorophenyl)-2-((1-methyl-1H-pyrazol-4-yl)amino)pyrimidin-4-yl)amino)-4-fluorophenyl)-2-fluoroacrylamide], for which, in the assay on A431 cells, the IC50 was determined as 326 nM. For the same molecule, the results for the GI50 in assay [2] and in assay [3] were 939 nM and 1730 nM, respectively.

`C=CC(=O)Nc1ccc(F)c(Nc2nc(Nc3cnn(C)c3)ncc2-c2ccc(C(F)(F)F)cc2OC)c1` [Compound 10, N-(4-fluoro-3-((5-(2-methoxy-4-(trifluoromethyl)phenyl)-2-((1-methyl-1H-pyrazol-4-yl)amino)pyrimidin-4-yl)amino)phenyl)acrylamide]: in the assay on A431 cells, the 50% inhibitory concentration (IC50) was above 10000 nM. The GI50 in assay [2] came out at 3940 nM; in assay [3] it was 3230 nM.

As to `C=CC(=O)Nc1ccc(F)c(Nc2nc(Nc3cn(C)nc3Cl)ncc2-c2ccc(F)c(Cl)c2)c1` [Compound 52, N-(3-((2-((3-chloro-1-methyl-1H-pyrazol-4-yl)amino)-5-(3-chloro-4-fluorophenyl)pyrimidin-4-yl)amino)-4-fluorophenyl)acrylamide], the half-maximal inhibitory concentration (IC50) in the assay with A431 cells amounted to 194 nM. The figures for the GI50 in assay [2] and in assay [3] were 104 nM and 307 nM, respectively.

Consider `C=CC(=O)Nc1ccc(F)c(Nc2nc(Nc3cnn(C)c3)ncc2-c2ccc(N(C)CCN(C)C)c(F)c2)c1` [Compound 86, N-(3-((5-(4-((2-(dimethylamino)ethyl)(methyl)amino)-3-fluorophenyl)-2-((1-methyl-1H-pyrazol-4-yl)amino)pyrimidin-4-yl)amino)-4-fluorophenyl)acrylamide], for which the IC50 with A431 cells is 3580 nM. For the same molecule, the GI50 worked out at 2940 nM in assay [2] and 2240 nM in assay [3].

On to `C=CC(=O)Nc1ccc(F)c(Nc2nc(Nc3cnn(C)c3)ncc2-c2ccc(N3CC(OC)C3)c(F)c2)c1` [Compound 79, N-(4-fluoro-3-((5-(3-fluoro-4-(3-methoxyazetidin-1-yl)phenyl)-2-((1-methyl-1H-pyrazol-4-yl)amino)pyrimidin-4-yl)amino)phenyl)acrylamide], for which, in the assay with A431 cells, the 50% inhibitory concentration (IC50) was 105 nM. Further, the GI50 in assay [2] was 312 nM; in assay [3], 248 nM.

Turning to `C=CC(=O)Nc1ccc(F)c(Nc2nc(Nc3cnn(C)c3)ncc2-c2ccc(N3CC(N(C)C)C3)c(F)c2)c1` [Compound 83, N-(3-((5-(4-(3-(dimethylamino)azetidin-1-yl)-3-fluorophenyl)-2-((1-methyl-1H-pyrazol-4-yl)amino)pyrimidin-4-yl)amino)-4-fluorophenyl)acrylamide], the IC50 in the assay with A431 cells stood at 1060 nM. Moreover, the GI50 turned out to be 1010 nM in assay [2] and 376 nM in assay [3].
